Among the data in ChEMBL document CHEMBL6120935, “Multifunctional Molecular Hybrids Photoreleasing Nitric Oxide: Advantages, Pitfalls, and Opportunities” (J Med Chem, 2024) are logD values, retold here.

One may read the logD as the decadic logarithm of the distribution of all forms, ionised or not, between an organic phase and buffer at a given pH.

The data set can be described thus: n-Octanol/PBS partition coefficient, logP of compound at pH 7.4 incubated for 4 hrs under shaking condition by UV spectrophotometric analysis. It counts as physicochemical.
In turn, `O=C(CCCCCCCC[P+](c1ccccc1)(c1ccccc1)c1ccccc1)NCCCNc1ccc([N+](=O)[O-])c(C(F)(F)F)c1` came in with a logD at 4 h of 2.78. As for `O=C(CCCCC[P+](c1ccccc1)(c1ccccc1)c1ccccc1)NCCCNc1ccc([N+](=O)[O-])c(C(F)(F)F)c1`, the figure is 2.39. As for `CC(=O)NCCCNc1ccc([N+](=O)[O-])c(C(F)(F)F)c1`, the figure is 2.03. Under `O=C(CCCCCCCCC[P+](c1ccccc1)(c1ccccc1)c1ccccc1)NCCCNc1ccc([N+](=O)[O-])c(C(F)(F)F)c1` stands 3.24.

`O=C(CC[P+](c1ccccc1)(c1ccccc1)c1ccccc1)NCCCNc1ccc([N+](=O)[O-])c(C(F)(F)F)c1` gave a logD at 4 h of 1.99.
